Results from ChEMBL document CHEMBL4304826, “Lead identification and characterization of hTrkA type 2 inhibitors” (Bioorg Med Chem Lett, 2019).

Key:
in vivo [1] = settings: Beagle, dog, plasma, iv, 0.2 mg/kg
in vivo [2] = settings: Beagle, dog, plasma, iv, 0.2 mg/kg; remark: listed apart in the source
in vivo [3] = settings: Beagle, dog, plasma, iv, 0.2 mg/kg; remark: listed apart in the source
in vivo [4] = settings: Beagle, dog, plasma, iv, 0.2 mg/kg; remark: listed apart in the source
in vivo [5] = settings: Beagle, dog, plasma, iv, 0.2 mg/kg; remark: listed apart in the source
in vivo [6] = settings: Beagle, dog, plasma, po, 3 mg/kg
in vivo [7] = settings: Beagle, dog, plasma, po, 3 mg/kg; remark: listed apart in the source
in vivo [8] = settings: Beagle, dog, plasma, po, 3 mg/kg; remark: listed apart in the source
in vivo [9] = settings: Beagle, dog, plasma, po, 3 mg/kg; remark: listed apart in the source
in vivo [10] = settings: Beagle, dog, plasma, po, 3 mg/kg; remark: listed apart in the source
in vivo [11] = settings: Beagle, dog, po, 3 mg/kg
in vitro [12] = settings: dog, liver microsomes
in vitro [13] = settings: dog, MDCK
in vitro [14] = settings: dog, MDCK; remark: listed apart in the source

half-life (in vivo [1]): 37.8 min
AUC(0-t) (in vivo [2]): 748 ng·h/mL
AUC(0-inf) (in vivo [3]): 755 ng·h/mL
Vd (in vivo [4]): 0.164 L/kg
clearance (in vivo [5]): 4.43 mL/min/kg
Cmax (in vivo [6]): 1140 ng/mL
Tmax (in vivo [7]): 45 min
half-life (in vivo [8]): 39 min
AUC(0-t) (in vivo [9]): 1780 ng·h/mL
AUC(0-inf) (in vivo [10]): 1790 ng·h/mL
bioavailability (in vivo [11]): 16%
half-life (in vitro [12]): 9 min
Papp A→B (in vitro [13]): 0.14 ×10⁻⁶ cm/s
Papp B→A (in vitro [14]): 3.73 ×10⁻⁶ cm/s
SMILES: Cc1ccc2nc(CSc3nnc(NC(=O)Nc4cccc(C(F)(F)F)c4)s3)cc(=O)n2c1
